Reference: patent US20100015058A1, “RADIOLABELED BBN-RGD HETERODIMERS FOR CANCER TARGETING” (STANFORD UNIVERSITY, priority 2008, published 2010)

What was measured:
[1] = tested on: MDA-MB-435 tumor; assay: Small-animal PET of MDA-MB-435 tumor-bearing mice; details: female, athymic nude, mouse, in vivo, iv
Protocol: The MDA-MB435 tumor model was established by orthotopic injections of 5×10^6 cells into the right mammary fat pad of female athymic nude mice. […] The mice were subjected to microPET studies when the tumor volume reached 100-300 mm^3 (2-3 weeks for MDA-MB-435, and 4-5 wk for T47D).
For static PET, 5-min scans were acquired at 30 min, 1 h, and 2 h after injection. For dynamic PET, 30-min scans (1×30 s, 4×1 min, 1×1.5 min, 4×2 min, 5×3 min; total 15 frames) were started 1 min after injection, and two 5-min static PET images were also acquired at 1 h and 2 h after injection. The images were reconstructed using a two-dimensional ordered subsets expectation maximum (OSEM) algorithm and no correction was applied for attenuation or scatter. […] For each small-animal PET scan, regions of interest (ROIs) were drawn over the tumor, normal tissue, and major organs using vendor software ASI Pro 5.2.4.0 on decay-corrected whole-body coronal images. The maximum radioactivity concentrations (accumulation) within a tumor or an organ were obtained from mean pixel values within the multiple ROI volume, and were converted to megabecquerels per milliliter per minute using a conversion factor. These values were then divided by the administered activity to obtain (assuming a tissue density of 1 g/ml) an image ROI-derived percent injected dose per gram (% ID/g).
(§1) Quantification of tumor and major organ activity accumulation in the microPET scans was realized by measuring the regions of interest (ROIs) that encompassing the entire organ on the coronal images.

[2] = MicroPET blood and normal organ uptake in T47D and MDA-MB-435 tumor-bearing nude mice; details: for tissue uptake at 1 h / tissue uptake at 2 h / tissue uptake at 4 h / tissue uptake at 24 h / tissue uptake at 0.5 h: nude, mouse, iv, total radioactivity
Text: The T47D or MDA-MB435 tumor uptake is expressed as the average of each tracer in four mice, while the normal organ uptake is expressed as the average of each tracer in eight mice (four T47D tumor-bearing mice and four MDA-MB-435 tumor-bearing mice per tracer).

[3] = tested on: T47D tumor; assay: MicroPET of T47D tumor-bearing mice; assay type: in vivo; details: orthotopic model
Text: The MDA-MB-231, MDA-MB468, BT474, BT-20, T47D, MCF-7 and MDA-MB435 human breast cancer cell lines were all obtained from the American Type Culture Collection (ATCC) and maintained under standard conditions according to ATCC. The MDA-MB435 tumor model was established by orthotopic injections of 5×10^6 cells into the right mammary fat pad of female athymic nude mice. For T47D tumor model establishment, the female nude mice were first subcutaneously implanted with 60-day release 17β-estradiol pellets (Innovative Research of America, Sarasota, Fla.) in the left neck. One day after the estradiol implantation, 1×10^7 T47D cells were orthotopically injected into the right mammary fat pad of the nude mice. The mice were subjected to microPET studies when the tumor volume reached 100-300 mm^3 (2-3 weeks for MDA-MB-435, and 4-5 wk for T47D).
as §1

[4] = tested on: PC-3 tumor cells; assay type: cell-based, human
Protocol: In the cell efflux experiment, PC-3 cells were seeded into 12-well plates at a density of 5×10^5 cells per well for overnight incubation. Cells were rinsed 3 times with PBS and then the appropriate ^18F-labeled peptide tracer was added. The cells were incubated at 37° C. for 2 hr, washed with PBS, and then reincubated with serum-free medium. The cells were washed at different time points (0, 15, 30, 60, 120, 180 min) with PBS and lysed with NaOH-SDS (0.2 M NaOH, 1% SDS). The cell lysate was collected in measurement tubes for counting. Efflux values at different time points were calculated by subtracting retention from 0-min retention, and normalized by dividing the total counts at 0 min.
The cell uptake studies were performed as we have previously described with some modifications (Chen et al., Mol Imaging Biol. (2004) […]; Cai et al., (2006) J. Nuc. Med. 47: 1172-1180, incorporated herein by reference in their entireties). Briefly, PC-3 cells were seeded into 12-well plates at a density of 5×10^5 cells per well and incubated (about 18 kBq/well) with ^68Ga-labeled tracers at 37° C. for 15, 30, 60, and 120 min. Tumor cells were then washed three times with chilled PBS and harvested by trypsinization with 0.25% trypsin/0.02% EDTA (Invitrogen). The cell suspensions were collected and measured in a y counter (Packard, Meriden, Conn.). The cell uptake was expressed as the percent added dose (% AD) after decay correction. Experiments were performed twice with triplicate wells. For efflux studies, ^68Ga-labeled tracers (about 18 kBq/well) were first incubated with PC-3 cells in 12-well plates for 1 h at 37° C. to allow internalization. Then cells were washed twice with PBS, and incubated with cell culture medium for 15, 30, and 60 min. After washing three times with PBS, cells were harvested by trypsinization with 0.25% trypsin/0.02% EDTA. The cell suspensions were collected and measured in a γ counter. Experiments were performed twice with triplicate wells. Data are expressed as percent added dose after decay correction.

[5] = tested on: PC-3 tumor; assay: in vivo
[6] = in vivo; set-up: species or system mice; details: male, athymic nude, mouse, 0.74 MBq, total radioactivity
Protocol: At 0.5 h and 1 h after injection of the tracer, the tumor-bearing mice were killed and dissected. Blood, tumor, major organs, and tissues were collected and wet-weighed. The radioactivity in the tissue was measured by y counter (Packard). The results are presented as percentage injected dose per gram of tissue (% ID/g). For each mouse, the radioactivity of the tissue samples was calibrated against a known aliquot of the injectate and normalized to a body mass of 20 g. Values were expressed as mean±SD for groups of four animals (n=4 per group).

[7] = blood, Blood uptake, average of eight mice
[8] = kidney, Kidney uptake, average of eight mice
[9] = liver, Liver uptake, average of eight mice
[10] = muscle, Muscle uptake, average of eight mice

SMILES: CSCC[C@H](NC(=O)[C@H](CC(C)C)NC(=O)[C@H](Cc1c[nH]cn1)NC(=O)CNC(=O)[C@@H](NC(=O)[C@H](C)NC(=O)[C@H](Cc1c[nH]c2ccccc12)NC(=O)[C@H](CCC(N)=O)NC(=O)CCCCCNC(=O)CC[C@H](NC(=S)Nc1ccc(C[C@H]2CN(CC(=O)O)CCN(CC(=O)O)CCN2CC(=O)O)cc1)C(=O)NCCCC[C@@H]1NC(=O)[C@@H](Cc2ccc(O)cc2)NC(=O)[C@H](CC(=O)O)NC(=O)CNC(=O)[C@H](CCCNC(=N)N)NC1=O)C(C)C)C(N)=O [^64Cu-NOTA-RGD-BBN, metal not drawn]
- MDA-MB-435 tumor uptake ([1]; 1 h): 1.84 ± 0.44 % ID/g
- MDA-MB-435 tumor uptake ([1]; 2 h): 1.47 ± 0.19 % ID/g
- Blood uptake ([2]; average of eight mice, 0.5 h): 1.40 ± 0.34 % ID/g
- Kidney uptake ([2]; average of eight mice, 0.5 h): 5.29 ± 0.58 % ID/g
- Liver uptake ([2]; average of eight mice, 0.5 h): 4.82 ± 1.34 % ID/g
- Muscle uptake ([2]; average of eight mice, 0.5 h): 0.91 ± 0.27 % ID/g
- Kidney uptake ([2]; average of eight mice, 1 h): 4.32 ± 0.55 % ID/g
- Liver uptake ([2]; average of eight mice, 1 h): 4.05 ± 1.12 % ID/g
- Muscle uptake ([2]; average of eight mice, 1 h): 0.75 ± 0.12 % ID/g
- Kidney uptake ([2]; average of eight mice, 2 h): 3.28±0.99 % ID/g
- Liver uptake ([2]; average of eight mice, 2 h): 3.22 ± 0.97 % ID/g
- Muscle uptake ([2]; average of eight mice, 2 h): 0.56 ± 0.33 % ID/g
- tissue uptake at 1 h ([2]; blood, Blood uptake, average of eight mice, 1 h): 1.01 ± 0.21 %ID/g
- tissue uptake at 2 h ([2]; blood, Blood uptake, average of eight mice, 2 h): 0.89 ± 0.23 %ID/g
- tissue uptake at 4 h [2, 7]: 0.54 ± 0.2 %ID/g
- tissue uptake at 24 h [2, 7]: 0.36 ± 0.04 %ID/g
- tissue uptake at 4 h [2, 8]: 2.95 ± 0.26 %ID/g
- tissue uptake at 24 h [2, 8]: 2.1 ± 0.72 %ID/g
- tissue uptake at 4 h [2, 9]: 2.76 ± 0.81 %ID/g
- tissue uptake at 24 h [2, 9]: 2.24 ± 0.36 %ID/g
- tissue uptake at 4 h [2, 10]: 0.4 ± 0.07 %ID/g
- tissue uptake at 24 h [2, 10]: 0.21 ± 0.04 %ID/g
- T47D tumor uptake ([3]; 0.5 h): 3.73 ± 0.81 % ID/g
- T47D tumor uptake ([3]; 1 h): 2.33 ± 0.59 % ID/g
- T47D tumor uptake ([3]; 2 h): 1.97 ± 0.32 % ID/g

SMILES: CSCC[C@H](NC(=O)[C@H](CC(C)C)NC(=O)[C@H](Cc1c[nH]cn1)NC(=O)CNC(=O)[C@@H](NC(=O)[C@H](C)NC(=O)[C@H](Cc1c[nH]c2ccccc12)NC(=O)[C@H](CCC(N)=O)NC(=O)CCCCCNC(=O)CC[C@H](NC(=S)Nc1ccc(C[C@H]2CN(CC(=O)O)CCN(CC(=O)O)CCN2CC(=O)O)cc1)C(=O)NCCCC[C@@H]1NC(=O)[C@@H](Cc2ccc(O)cc2)NC(=O)[C@H](CC(=O)O)NC(=O)CNC(=O)[C@H](CCCNC(=N)N)NC1=O)C(C)C)C(N)=O [^68Ga-NOTA-RGD-BBN, metal not drawn]
- cell-associated tracer (cell retention) ([4]; PC-3 cells, 60 min efflux, FIG. 14D): 1.14±0.50 % AD
- time of peak kidney uptake ([5]; mouse, in vivo): about 10 min
- tissue uptake at 0.5 h ([6]; kidney uptake, biodistribution): 8.76 ± 1.83 %ID/g
- tissue uptake at 1 h ([6]; kidney uptake, biodistribution): 5.58 ± 0.75 %ID/g
- tissue uptake at 0.5 h ([6]; tumor uptake, biodistribution): 5.43 ± 0.54 %ID/g
- tissue uptake at 1 h ([6]; tumor uptake, biodistribution): 4.76 ± 0.46 %ID/g
- Blood uptake ([2]; average of eight mice, 0.5 h): 2.91 ± 0.28 % ID/g
- Blood uptake ([2]; average of eight mice, 1 h): 1.95 ± 0.47 % ID/g
- Blood uptake ([2]; average of eight mice, 2 h): 1.06 ± 0.23 % ID/g
- Kidney uptake ([2]; average of eight mice, 2 h): 1.64±0.40 % ID/g
- Liver uptake ([2]; average of eight mice, 2 h): 1.60 ± 0.09 % ID/g
- tissue uptake at 2 h ([2]; female, kidney, Kidney uptake, average of eight mice, 2 h): 1.64 ± 0.4 %ID/g
- tissue uptake at 0.5 h ([2]; female, liver, Liver uptake, average of eight mice, 0.5 h): 2.68 ± 0.29 %ID/g
- tissue uptake at 0.5 h ([2]; kidney, Kidney uptake, average of eight mice, 0.5 h): 4.39 ± 1.05 %ID/g
- tissue uptake at 1 h ([2]; kidney, Kidney uptake, average of eight mice, 1 h): 3.96 ± 1.12 %ID/g
- tissue uptake at 1 h ([2]; liver, Liver uptake, average of eight mice, 1 h): 2.08 ± 0.43 %ID/g
- tissue uptake at 0.5 h ([2]; muscle, Muscle uptake, average of eight mice, 0.5 h): 1.33 ± 0.28 %ID/g
- tissue uptake at 1 h ([2]; muscle, Muscle uptake, average of eight mice, 1 h): 1.18 ± 0.44 %ID/g
- tissue uptake at 2 h ([2]; muscle, Muscle uptake, average of eight mice, 2 h): 0.78 ± 0.07 %ID/g

SMILES: CSCC[C@H](NC(=O)[C@H](CC(C)C)NC(=O)[C@H](Cc1c[nH]cn1)NC(=O)CNC(=O)[C@@H](NC(=O)[C@H](C)NC(=O)[C@H](Cc1c[nH]c2ccccc12)NC(=O)[C@H](CCC(N)=O)NC(=O)CCCCCNC(=O)CC[C@H](NC(=O)COCCOCCOCCNC(=O)c1ccc([18F])cc1)C(=O)NCCCC[C@@H]1NC(=O)[C@@H](Cc2ccc(O)cc2)NC(=O)[C@H](CC(=O)O)NC(=O)CNC(=O)[C@H](CCCNC(=N)N)NC1=O)C(C)C)C(N)=O [^18F-FB-PEG3-RGD-BBN]
- efflux ratio [4]: about 40%
- decrease of tumor uptake by BBN blocking ([5]; 1 h, Aca-BBN(7-14) 15 mg/kg, n=3): 65%
- decrease of tumor uptake by RGD and BBN blocking ([5]; 1 h, RGD 10 mg/kg and BBN 15 mg/kg, n=3): 90%
- decrease of tumor uptake by RGD blocking ([5]; 1 h, c(RGDyK) 10 mg/kg, n=3): 50%
- blood % ID/g at 30 min relative to that at 2 min p.i. ([5]; mouse, in vivo): 35%
- time of peak kidney uptake ([5]; mouse, in vivo): about 10 min
- tissue uptake at 1 h ([6]; kidney uptake, biodistribution): 4.87 ± 0.67 %ID/g
- tissue uptake at 1 h ([6]; tumor uptake, biodistribution): 4 ± 0.08 %ID/g
- tissue uptake at 1 h ([6]; uptake values in the blood, heart, liver, spleen, bone, and muscle): < 2 %ID/g
- Liver uptake ([2]; average of eight mice, 0.5 h): 1.13±0.43 % ID/g
- Kidney uptake ([2]; average of eight mice, 2 h): 0.74±0.19 % ID/g
- tissue uptake at 2 h ([2]; female, kidney): 0.74 ± 0.19 %ID/g
- tissue uptake at 0.5 h ([2]; female, liver): 1.13 ± 0.43 %ID/g
- tissue uptake at 0.5 h ([2]; blood): 0.78 ± 0.37 %ID/g
- tissue uptake at 1 h ([2]; blood): 0.41 ± 0.11 %ID/g
- tissue uptake at 2 h ([2]; blood): 0.18 ± 0.02 %ID/g
- tissue uptake at 0.5 h ([2]; kidney): 2.77 ± 0.78 %ID/g
- tissue uptake at 1 h ([2]; kidney): 1.56 ± 0.32 %ID/g
- tissue uptake at 1 h ([2]; liver): 0.56 ± 0.21 %ID/g
- tissue uptake at 2 h ([2]; liver): 0.23 ± 0.07 %ID/g
- tissue uptake at 0.5 h ([2]; muscle): 0.81 ± 0.23 %ID/g
- tissue uptake at 1 h ([2]; muscle): 0.33 ± 0.17 %ID/g
- tissue uptake at 2 h ([2]; muscle): 0.15 ± 0.05 %ID/g
- T47D tumor uptake ([3]; 0.5 h): 2.96±0.53 % ID/g
- T47D tumor uptake ([3]; 1 h): 1.81±0.34 % ID/g
- T47D tumor uptake ([3]; 2 h): 0.91±0.12 % ID/g
